# According to ChEMBL document CHEMBL3259563, “The discovery of potent and selective non-steroidal glucocorticoid receptor modulators, suitable for inhalation” (Bioorg Med Chem Lett, 2014):
# Key:
# Progesterone receptor = biological target: T1, Progesterone receptor (Homo sapiens, UniProt P06401); assay: Binding affinity to progesterone receptor (unknown origin)
# T1 sequence (P06401 whole entry): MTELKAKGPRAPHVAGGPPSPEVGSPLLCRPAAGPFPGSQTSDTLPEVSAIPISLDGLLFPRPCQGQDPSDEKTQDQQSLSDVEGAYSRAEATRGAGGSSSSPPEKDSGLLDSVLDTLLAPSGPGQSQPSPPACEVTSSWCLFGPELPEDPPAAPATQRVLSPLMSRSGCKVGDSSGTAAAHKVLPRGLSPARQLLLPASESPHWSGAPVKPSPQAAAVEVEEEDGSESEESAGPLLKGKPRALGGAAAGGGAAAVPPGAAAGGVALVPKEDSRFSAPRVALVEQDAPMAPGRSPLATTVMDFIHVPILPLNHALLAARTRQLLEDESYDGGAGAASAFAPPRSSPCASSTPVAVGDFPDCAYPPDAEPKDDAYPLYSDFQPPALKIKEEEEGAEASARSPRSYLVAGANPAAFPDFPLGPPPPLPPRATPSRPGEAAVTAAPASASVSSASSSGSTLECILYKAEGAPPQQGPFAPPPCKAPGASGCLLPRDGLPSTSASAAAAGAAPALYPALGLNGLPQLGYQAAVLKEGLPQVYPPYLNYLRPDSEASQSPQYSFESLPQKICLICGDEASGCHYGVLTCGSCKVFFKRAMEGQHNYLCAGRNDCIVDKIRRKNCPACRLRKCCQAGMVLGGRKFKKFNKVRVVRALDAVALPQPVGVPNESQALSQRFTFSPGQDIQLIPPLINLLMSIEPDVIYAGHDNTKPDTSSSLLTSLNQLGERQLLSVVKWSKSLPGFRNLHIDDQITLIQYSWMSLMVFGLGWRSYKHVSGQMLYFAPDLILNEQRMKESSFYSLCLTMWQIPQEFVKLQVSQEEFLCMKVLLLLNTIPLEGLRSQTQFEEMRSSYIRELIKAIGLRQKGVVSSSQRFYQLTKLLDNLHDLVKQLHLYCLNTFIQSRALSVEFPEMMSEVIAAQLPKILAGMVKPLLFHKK
# Estrogen receptor beta = Estrogen receptor beta (Homo sapiens, UniProt Q92731); assay: Binding affinity to ER-beta (unknown origin)
# [1] = Thermodynamic solubility of the crystalline compound in 0.1 M phosphate buffer at pH 7.4 at 25 degC after 24 hrs; format: physicochemical; conditions: read-out: Therm_solubility
# [2] = Intrinsic clearance in human microsomes; format: ADME, Microsome
# Cytochrome P450 2D6 = Cytochrome P450 2D6 (Homo sapiens, UniProt P10635); assay: Inhibition of CYP2D6 (unknown origin); format: ADME
# [3] = biological target: Voltage-gated inwardly rectifying potassium channel KCNH2 (Homo sapiens, UniProt Q12809); assay: Inhibition of human ERG channel
# Lung = assay: Drug uptake in intratracheally dosed rat lung after 4 hrs; format: ADME, organism-based; conditions: in vivo, inhaled_or_intranasal
# [4] = Thermodynamic solubility of the amorphous compound in 0.1 M phosphate buffer at pH 7.4 at 25 degC after 24 hrs; format: physicochemical; conditions: read-out: Therm_solubility
# Cytochrome P450 2D6, sequence (P10635 whole entry): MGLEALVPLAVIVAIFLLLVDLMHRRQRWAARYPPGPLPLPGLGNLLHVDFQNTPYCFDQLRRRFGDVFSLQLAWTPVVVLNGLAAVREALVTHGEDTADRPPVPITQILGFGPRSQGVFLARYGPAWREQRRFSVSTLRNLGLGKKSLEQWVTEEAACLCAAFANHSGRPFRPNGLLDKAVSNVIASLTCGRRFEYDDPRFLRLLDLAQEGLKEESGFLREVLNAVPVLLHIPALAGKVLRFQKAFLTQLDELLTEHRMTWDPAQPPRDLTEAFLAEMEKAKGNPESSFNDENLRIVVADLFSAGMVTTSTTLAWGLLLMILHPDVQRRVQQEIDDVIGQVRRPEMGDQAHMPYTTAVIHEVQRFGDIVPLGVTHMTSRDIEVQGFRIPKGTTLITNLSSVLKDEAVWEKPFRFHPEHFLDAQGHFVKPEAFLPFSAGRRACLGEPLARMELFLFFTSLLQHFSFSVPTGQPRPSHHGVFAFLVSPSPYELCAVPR
# Voltage-gated inwardly rectifying potassium channel KCNH2, sequence (Q12809 whole entry): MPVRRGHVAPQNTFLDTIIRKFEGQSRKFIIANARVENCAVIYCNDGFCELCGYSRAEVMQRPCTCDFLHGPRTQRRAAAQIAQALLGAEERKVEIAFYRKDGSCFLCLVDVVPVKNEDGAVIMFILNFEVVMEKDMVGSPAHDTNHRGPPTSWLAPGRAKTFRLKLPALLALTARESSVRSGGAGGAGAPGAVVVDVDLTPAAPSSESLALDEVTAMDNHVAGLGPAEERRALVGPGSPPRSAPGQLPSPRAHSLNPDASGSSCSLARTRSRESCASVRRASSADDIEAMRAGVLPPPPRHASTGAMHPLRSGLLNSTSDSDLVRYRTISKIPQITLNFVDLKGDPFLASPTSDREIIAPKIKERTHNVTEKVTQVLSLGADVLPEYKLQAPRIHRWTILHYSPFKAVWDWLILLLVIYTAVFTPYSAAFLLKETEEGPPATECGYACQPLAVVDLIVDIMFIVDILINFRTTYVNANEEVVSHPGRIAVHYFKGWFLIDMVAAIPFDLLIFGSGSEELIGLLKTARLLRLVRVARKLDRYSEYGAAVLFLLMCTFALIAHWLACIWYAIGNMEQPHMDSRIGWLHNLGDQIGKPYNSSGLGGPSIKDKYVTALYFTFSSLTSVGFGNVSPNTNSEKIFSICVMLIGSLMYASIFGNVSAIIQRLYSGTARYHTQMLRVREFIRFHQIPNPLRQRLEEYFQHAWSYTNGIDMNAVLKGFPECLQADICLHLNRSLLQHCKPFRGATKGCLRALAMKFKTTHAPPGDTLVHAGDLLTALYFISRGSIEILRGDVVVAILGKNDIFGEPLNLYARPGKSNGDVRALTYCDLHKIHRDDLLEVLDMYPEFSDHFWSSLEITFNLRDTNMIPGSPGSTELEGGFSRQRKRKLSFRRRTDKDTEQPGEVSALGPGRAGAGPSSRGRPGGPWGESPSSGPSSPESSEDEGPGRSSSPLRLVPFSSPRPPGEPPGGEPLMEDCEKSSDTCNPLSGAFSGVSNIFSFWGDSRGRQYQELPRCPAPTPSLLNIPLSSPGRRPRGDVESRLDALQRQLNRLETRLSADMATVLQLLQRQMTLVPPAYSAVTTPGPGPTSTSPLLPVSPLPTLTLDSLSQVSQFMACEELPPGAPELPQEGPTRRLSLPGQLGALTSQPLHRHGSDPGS
# Estrogen receptor beta, sequence (Q92731 whole entry): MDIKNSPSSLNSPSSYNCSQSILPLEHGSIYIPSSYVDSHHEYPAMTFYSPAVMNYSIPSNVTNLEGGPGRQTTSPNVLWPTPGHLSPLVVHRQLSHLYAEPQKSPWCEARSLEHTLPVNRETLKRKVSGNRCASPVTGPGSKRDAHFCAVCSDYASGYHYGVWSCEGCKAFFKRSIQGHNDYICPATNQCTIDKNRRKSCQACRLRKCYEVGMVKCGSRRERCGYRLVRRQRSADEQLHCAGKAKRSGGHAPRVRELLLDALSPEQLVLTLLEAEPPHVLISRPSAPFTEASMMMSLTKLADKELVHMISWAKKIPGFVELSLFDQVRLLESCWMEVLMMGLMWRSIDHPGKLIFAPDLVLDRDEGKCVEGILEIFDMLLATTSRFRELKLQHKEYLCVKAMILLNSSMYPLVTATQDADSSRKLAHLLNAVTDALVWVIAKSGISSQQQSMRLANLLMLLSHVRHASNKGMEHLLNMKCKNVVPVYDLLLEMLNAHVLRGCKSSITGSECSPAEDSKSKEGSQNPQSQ
compound,measurement,setting,value
Cc1nn(C2CCCC2)c(C)c1S(=O)(=O)N[C@@H](C)CNc1cccc2c1cnn2-c1ccc(F)nc1,IC50,Progesterone receptor,4.5 µM
same,IC50,Estrogen receptor beta,> 5 µM
same,solubility thermodynamic at 24 h,[1],1.5 µM
same,microsomal CLint,[2],> 200 µL/min/mg
same,IC50,Cytochrome P450 2D6,> 20 µM
same,IC50,[3],8.7 µM
same,Drug uptake,Lung,Active
same,solubility thermodynamic at 24 h,[4],22 µM
